Like-named read-outs stand apart in the source and are kept apart here.
Assay: TRM-201-PK-102 single-dose four-period crossover pharmacokinetic study, fasted healthy subjects
Assay type: in vivo, human
Details: human, plasma, oral; for Cmax / AUC(0-inf): 102 study
Protocol: A Single-Dose, Open-Label, Phase 1, Four-Period Crossover Pharmacokinetic Study of TRM-201 (Rofecoxib) 12.5 mg, 17.5 mg, 20 mg and 25 mg Administered to Healthy Subjects in a Fasting State, with Comparison to Historical Pharmacokinetic Parameters of Previously Marketed Rofecoxib (“TRM-201-PK-102” or “102 PK Study”)
This was a single-center, open-label four-period crossover PK study of TRM-201. The study included 24 subjects who received TRM-201 as a single dose of 12.5 mg, 17.5 mg, 20 mg and 25 mg to assess the PK of TRM-201 in healthy volunteers under fasted conditions. Subjects were randomized to one of four treatment sequences. The PK data from the current study along with the data from the TRM-201-PK-101 study (Example 4) was used to compare to historical pharmacokinetic parameters of previously marketed rofecoxib, all in a fasted state.
In each of the four dosing periods, subjects fasted overnight for at least 10 hours before study drug dosing. While fasting, subjects had nothing to eat and only water to drink. Water was permitted as desired, except for the period between 1 hour before and 1 hour after study drug dosing (excepting as permitted for dosing). After the 2-hour PK blood sample, subjects were allowed one 250-mL cup of clear apple juice. After the 4-hour PK blood sample, subjects were served a light lunch. Following the light lunch, subjects received standardized meals according to the clinic's standard procedures that were scheduled at consistent times and at least 15 minutes before or 15 minutes after PK sampling time points. Blood was withdrawn for PK analysis at predefined time points. For each dosing period the last time point was 120 hours after dosing with study drug (Day 6). After the 120 hour PK sample, the EOP procedures was completed, subjects remained in-clinic for the in-between dose period day (Days 7, 14, and 21) and began the next dosing period starting with an overnight fast for at least 10 hours on Day −1 of the subsequent dosing period. Pharmacokinetic and safety endpoints were evaluated.
The study drug, TRM-201, was an immediate-release tablet that contained 12.5 mg rofecoxib, 17.5 mg rofecoxib, 20 mg rofecoxib or 25 mg rofecoxib. The 7.25-mm diameter tablets were off-white, round, and uncoated with no markings. TRM-201 tablets were for oral administration.
For each sample, approximately 3 mL of blood were drawn. The samples were obtained by a straight stick or via an in-dwelling intravenous (IV) catheter in a forearm vein. Additional details for the collection, processing, storage, and shipping of PK samples were provided in the study manual.
Pharmacokinetic samples will be analyzed using a validated assay for rofecoxib in human plasma. Assay results and validation details will be provided in a separate bioanalytical report. The following PK parameters for rofecoxib will be calculated as primary endpoints using standard noncompartmental methods: AUC0-∞ and Cmax. Secondary endpoints include Tmax, and t1/2. Additional PK parameters (e.g., CL/F, and Vd/F) will also be calculated using standard noncompartmental methods.
Individual plasma concentrations for rofecoxib and PK sampling time deviation data will be presented in a data listing. Plasma concentration data will be summarized by time point using the following descriptive statistics: number of subjects, arithmetic mean, SD, coefficient of variation (CV), geometric mean, natural-log-scale SD, geometric CV, median, minimum, and maximum. Individual plasma concentration versus actual time profiles were presented on both linear and semilogarithmic scales. Additionally, arithmetic mean concentration versus scheduled time profiles were presented on linear scales and geometric means on semilogarithmic scales.
The PK parameters of rofecoxib were analyzed based on the actual sampling times. […]

[1] = 25 mg, read-out: arithmetic mean plasma concentration
[2] = 25 mg, read-out: geometric mean plasma concentration

With `CS(=O)(=O)c1ccc(C2=C(c3ccccc3)C(=O)OC2)cc1` [TRM-201, 4-[4-(methylsulfonyl)phenyl]-3-phenyl-2(5H)-furanone] the Cmax (25 mg, 41-52 years, read-out: arithmetic mean Cmax) was 326 ng/mL, the AUC(0-inf) (25 mg, 41-52 years, read-out: geometric mean AUC0-∞) was 4580 ng·h/mL and the Cmax (25 mg, 41-52 years, read-out: geometric mean Cmax) was 321 ng/mL. It also gave an AUC(0-inf) (25 mg, 53-60 years, read-out: arithmetic mean AUC0-∞) of 4940 ng·h/mL, a Cmax (25 mg, 53-60 years, read-out: arithmetic mean Cmax) of 354 ng/mL and an AUC(0-inf) (25 mg, 53-60 years, read-out: geometric mean AUC0-∞) of 4880 ng·h/mL. It also gave a Cmax (25 mg, 53-60 years, read-out: geometric mean Cmax) of 347 ng/mL, an AUC(0-inf) (25 mg, Black or African-American subjects, read-out: arithmetic mean AUC0-∞) of 3990 ng·h/mL and a Cmax (25 mg, Black or African-American subjects, read-out: arithmetic mean Cmax) of 340 ng/mL. The AUC(0-inf) (25 mg, Black or African-American subjects, read-out: geometric mean AUC0-∞) was 3940 ng·h/mL, the Cmax (25 mg, Black or African-American subjects, read-out: geometric mean Cmax) was 339 ng/mL and the AUC(0-inf) (25 mg, Hispanic or Latino subjects, read-out: arithmetic mean AUC0-∞) was 4980 ng·h/mL. The Cmax (25 mg, Hispanic or Latino subjects, read-out: arithmetic mean Cmax) was 358 ng/mL, the AUC(0-inf) (25 mg, Hispanic or Latino subjects, read-out: geometric mean AUC0-∞) was 4870 ng·h/mL and the Cmax (25 mg, Hispanic or Latino subjects, read-out: geometric mean Cmax) was 351 ng/mL. The AUC(0-inf) (25 mg, White subjects, read-out: arithmetic mean AUC0-∞) was 4800 ng·h/mL, the Cmax (25 mg, White subjects, read-out: arithmetic mean Cmax) was 351 ng/mL and the AUC(0-inf) (25 mg, White subjects, read-out: geometric mean AUC0-∞) was 4650 ng·h/mL. For the same molecule, the Cmax (25 mg, White subjects, read-out: geometric mean Cmax) was 341 ng/mL, the AUC(0-inf) (25 mg, body weight 47-70 kg, read-out: arithmetic mean AUC0-∞) was 4450 ng·h/mL and the Cmax (25 mg, body weight 47-70 kg, read-out: arithmetic mean Cmax) was 385 ng/mL. The AUC(0-inf) (25 mg, body weight 47-70 kg, read-out: geometric mean AUC0-∞) was 4310 ng·h/mL, the Cmax (25 mg, body weight 47-70 kg, read-out: geometric mean Cmax) was 376 ng/mL and the AUC(0-inf) (25 mg, body weight 70.1-77 kg, read-out: arithmetic mean AUC0-∞) was 5470 ng·h/mL. The Cmax (25 mg, body weight 70.1-77 kg, read-out: arithmetic mean Cmax) was 371 ng/mL, the AUC(0-inf) (25 mg, body weight 70.1-77 kg, read-out: geometric mean AUC0-∞) was 5410 ng·h/mL and the Cmax (25 mg, body weight 70.1-77 kg, read-out: geometric mean Cmax) was 368 ng/mL. For the same molecule, the AUC(0-inf) (25 mg, body weight 77.1-90 kg, read-out: arithmetic mean AUC0-∞) was 4130 ng·h/mL, the Cmax (25 mg, body weight 77.1-90 kg, read-out: arithmetic mean Cmax) was 299 ng/mL and the AUC(0-inf) (25 mg, body weight 77.1-90 kg, read-out: geometric mean AUC0-∞) was 4040 ng·h/mL. It also gave a Cmax (25 mg, body weight 77.1-90 kg, read-out: geometric mean Cmax) of 294 ng/mL, an AUC(0-inf) (25 mg, non-Hispanic or non-Latino subjects, read-out: arithmetic mean AUC0-∞) of 4280 ng·h/mL and a Cmax (25 mg, non-Hispanic or non-Latino subjects, read-out: arithmetic mean Cmax) of 340 ng/mL. For the same molecule, the AUC(0-inf) (25 mg, non-Hispanic or non-Latino subjects, read-out: geometric mean AUC0-∞) was 4150 ng·h/mL, the Cmax (25 mg, non-Hispanic or non-Latino subjects, read-out: geometric mean Cmax) was 331 ng/mL and the concentration at 15 minutes [1] was 5.63 ng/mL. The concentration at 15 minutes [2] was 1.37 ng/mL, the concentration at 45 minutes [1] was 159 ng/mL and the concentration at 45 minutes [2] was 97.6 ng/mL. For the same molecule, the AUC(0-inf) (male, 12.5 mg, males, read-out: arithmetic mean AUC0-∞) was 1750 ng·h/mL, the Cmax (male, 12.5 mg, males, read-out: arithmetic mean Cmax) was 132 ng/mL and the AUC(0-inf) (male, 12.5 mg, males, read-out: geometric mean AUC0-∞) was 1580 ng·h/mL. For the same molecule, the Cmax (male, 12.5 mg, males, read-out: geometric mean Cmax) was 127 ng/mL, the AUC(0-inf) (male, 17.5 mg, males, read-out: arithmetic mean AUC0-∞) was 2860 ng·h/mL and the Cmax (male, 17.5 mg, males, read-out: arithmetic mean Cmax) was 201 ng/mL. The AUC(0-inf) (male, 17.5 mg, males, read-out: geometric mean AUC0-∞) was 2710 ng·h/mL, the Cmax (male, 17.5 mg, males, read-out: geometric mean Cmax) was 196 ng/mL and the AUC(0-inf) (male, 20 mg, males, read-out: arithmetic mean AUC0-∞) was 3130 ng·h/mL. For the same molecule, the Cmax (male, 20 mg, males, read-out: arithmetic mean Cmax) was 234 ng/mL, the AUC(0-inf) (male, 20 mg, males, read-out: geometric mean AUC0-∞) was 2940 ng·h/mL and the Cmax (male, 20 mg, males, read-out: geometric mean Cmax) was 224 ng/mL. It also gave an AUC(0-inf) (male, 25 mg, males, read-out: arithmetic mean AUC0-∞) of 4080 ng·h/mL, a Cmax (male, 25 mg, males, read-out: arithmetic mean Cmax) of 302 ng/mL and an AUC(0-inf) (male, 25 mg, males, read-out: geometric mean AUC0-∞) of 3940 ng·h/mL. It also gave a Cmax (male, 25 mg, males, read-out: geometric mean Cmax) of 298 ng/mL, an AUC(0-inf) (male, 25 mg, printed 'For males' (second statement, after the females' arithmetic means), read-out: geometric mean AUC0-∞) of 5020 ng·h/mL and a Cmax (male, 25 mg, printed 'For males' (second statement, after the females' arithmetic means), read-out: geometric mean Cmax) of 382 ng/mL.

From patent US10945992B1, “Dosage forms of rofecoxib and related methods” (Tremeau Pharmaceuticals, Inc., priority 2019, dated 2021)
